Measurements as given in patent publication US5158770A, “Aqueous solution containing ginkgo leaf extract” (Freund Industrial Co., Ltd., priority 1989, dated 1992).
Values after ≈ are worked out from the molar mass of the structure shown. Where a name gives a salt, the structure may show the parent alone.

Key:
[1] = Solubility Test-1: dissolution of ginkgo leaf extract dry powder in aqueous solution of the compound; format: physicochemical; parameters: key: .largecircle.: dissolved to form a transparent aqueous solution; X: insoluble; conditions: 5 g compound in 100 ml water at 20° C., 10 g ginkgo leaf extract, shaken 10 minutes
Experimental: To each aqueous solution was added 10 g of dry powder of the ginkgo leaf extract and shaken for 10 minutes to observe the dissolution state.

[2] = physchem; conditions: water
[3] = Solubility of the organic/inorganic compound in water

SMILES | Dissolution state [1] | solubility [2] [mg/mL] | solubility [3] [mg/mL]
CC(C)(CO)[C@@H](O)C(=O)NCCC(=O)O [Calcium pantothenate] | .largecircle. |  | 
N#CN=C(N)N [Dicyandiamide] | X | 32 (≈ 381 mM) | 
OCC(O)CO [Glycerin] | X |  | 
Cl.N[C@@H](Cc1c[nH]cn1)C(=O)O [Histidine hydrochloride] |  |  | 420
CC[C@H](C)[C@H](N)C(=O)O [Isoleucine] |  | 38 (≈ 290 mM) | 
CCCCCCCCCCCC[N+](C)(C)C.[Cl-] [Lauryltrimethylammonium chloride, Lauryltrimethyl-ammonium chloride] | .largecircle. | 760 | 
CSCC[C@H](N)C(=O)O [Methionine] | X |  | 33 (≈ 221 mM)
NC(=O)c1cccnc1 [Nicotinic acid amide] | .largecircle. |  | 500 (≈ 4090 mM)
O=C(O)c1cccnc1 [Nicotinic acid] | X |  | 16 (≈ 130 mM)
Cc1ncc(CO)c(CO)c1O.Cl [Pyridoxine hydrochloride] | .largecircle. | 190 | 
Oc1cccc(O)c1O [Pyrogallol] |  | 625 (≈ 4960 mM) | 
Cc1cc2nc3c(=O)[nH]c(=O)nc-3n(C[C@H](O)[C@H](O)[C@H](O)CO)c2cc1C [Riboflavin] | X |  | 0.1 (≈ 0.266 mM)
OC[C@@H](O)[C@@H](O)[C@H](O)[C@@H](O)CO [Sorbitol] | X |  | 720 (≈ 3950 mM)
OC[C@H]1O[C@@](CO)(O[C@H]2O[C@H](CO)[C@@H](O)[C@H](O)[C@H]2O)[C@@H](O)[C@@H]1O [Sucrose] | X | 664 (≈ 1940 mM) | 
NCCS(=O)(=O)O [Taurine] |  | 90 (≈ 719 mM) | 
Cc1ncc(C[n+]2csc(CCO)c2C)c(N)n1 [Thiamine hydrochloride] | .largecircle. |  | 1000
C[C@@H](O)[C@H](N)C(=O)O [Threonine] | .largecircle. |  | 
NC(N)=O [Urea] | .largecircle. |  | 
CC(C)[C@H](N)C(=O)O [Valine] |  | 85 (≈ 726 mM) | 
